Experimental data from ChEMBL document CHEMBL5537150, “Synthesis of melampomagnolide B derivatives as potential anti-Triple Negative Breast Cancer agents” (Eur J Med Chem, 2024).
Calls of active or inactive are those of the source. No cut-off for these calls is given here.

What was measured:
[1] = tested on: MDA-MB-231; test: Antiproliferative activity against human MDA-MB-231 cells assessed as inhibition of cell growth incubated for 72 hrs by MTT assay; type: functional, cell-based; settings: MDA-MB-231, 72 h
[2] = tested on: SUM-159-PT; test: Antiproliferative activity against human SUM159 cells assessed as inhibition of cell growth incubated for 72 hrs by MTT assay; type: functional, cell-based
[3] = tested on: MDA-MB-468; test: Antiproliferative activity against human MDA-MB-468 cells assessed as inhibition of cell growth incubated for 72 hrs by MTT assay; type: functional, cell-based; settings: MDA-MB-468, 72 h
[4] = tested on: MCF7; test: Antiproliferative activity against human MCF7 cells assessed as inhibition of cell growth incubated for 72 hrs by MTT assay; type: functional, cell-based; settings: MCF7, 72 h
[5] = tested on: 4T1; test: Antiproliferative activity against mouse 4T1 cells assessed as inhibition of cell growth incubated for 72 hrs by MTT assay; type: functional, cell-based; settings: 4T1, 72 h
[6] = tested on: NIH3T3; test: Cytotoxicity against mouse 3T3 cells at 1 uM incubated for 72 hrs by MTT assay; type: toxicity, cell-based; settings: nih3t3, 72 h
[7] = tested on: MDA-MB-468; test: Antimigratory activity in human MDA-MB-468 cells assessed as reduction in number of migrated cells incubated for 48 hrs by crystal violet staining based transwell assay; type: functional, cell-based
[8] = tested on: MDA-MB-231; test: Antimigratory activity in human MDA-MB-231 cells assessed as reduction in number of migrated cells incubated for 48 hrs by crystal violet staining based transwell assay; type: functional, cell-based
[9] = tested on: MDA-MB-468; test: Antimigratory activity in human MDA-MB-468 cells assessed as downregulation of Vimentin protein expression incubated for 48 hrs by Western blotting analysis; type: functional, cell-based
[10] = tested on: MDA-MB-468; test: Antimigratory activity in human MDA-MB-468 cells assessed as downregulation of N-cadherin protein expression incubated for 48 hrs by Western blotting analysis; type: functional, cell-based
[11] = tested on: MDA-MB-231; test: Antimigratory activity in human MDA-MB-231 cells assessed as downregulation of N-cadherin protein expression incubated for 48 hrs by Western blotting analysis; type: functional, cell-based
[12] = tested on: MDA-MB-231; test: Antimigratory activity in human MDA-MB-231 cells assessed as downregulation of Vimentin protein expression incubated for 48 hrs by Western blotting analysis; type: functional, cell-based
[13] = tested on: MDA-MB-468; test: Induction of apoptosis in human MDA-MB-468 cells at 0.2 uM incubated for 48 hrs by annexin-V-APC/PI staining based flow cytometric analysis (reference value: 5.65 +/- 2.76 %); type: functional
[14] = tested on: MDA-MB-468; test: Induction of apoptosis in human MDA-MB-468 cells at 0.5 uM incubated for 48 hrs by annexin-V-APC/PI staining based flow cytometric analysis (reference value: 5.65 +/- 2.76 %); type: functional
[15] = tested on: MDA-MB-468; test: Induction of apoptosis in human MDA-MB-468 cells at 1 uM incubated for 48 hrs by annexin-V-APC/PI staining based flow cytometric analysis (reference value: 5.65 +/- 2.76 %); type: functional
[16] = tested on: MDA-MB-468; test: Induction of apoptosis in human MDA-MB-468 cells at 2 uM incubated for 48 hrs by annexin-V-APC/PI staining based flow cytometric analysis (reference value: 5.65 +/- 2.76 %); type: functional
[17] = tested on: MDA-MB-468; test: Induction of apoptosis in human MDA-MB-468 cells at 5 uM incubated for 48 hrs by annexin-V-APC/PI staining based flow cytometric analysis (reference value: 5.65 +/- 2.76 %); type: functional
[18] = tested on: MDA-MB-231; test: Induction of apoptosis in human MDA-MB-231 cells at 0.2 uM incubated for 48 hrs by annexin-V-APC/PI staining based flow cytometric analysis (reference value: 5.9 +/- 0.26 %); type: functional
[19] = tested on: MDA-MB-231; test: Induction of apoptosis in human MDA-MB-231 cells at 0.5 uM incubated for 48 hrs by annexin-V-APC/PI staining based flow cytometric analysis (reference value: 5.9 +/- 0.26 %); type: functional
[20] = tested on: MDA-MB-231; test: Induction of apoptosis in human MDA-MB-231 cells at 1 uM incubated for 48 hrs by annexin-V-APC/PI staining based flow cytometric analysis (reference value: 5.9 +/- 0.26 %); type: functional
[21] = tested on: MDA-MB-231; test: Induction of apoptosis in human MDA-MB-231 cells at 2 uM incubated for 48 hrs by annexin-V-APC/PI staining based flow cytometric analysis (reference value: 5.9 +/- 0.26 %); type: functional
[22] = tested on: MDA-MB-231; test: Induction of apoptosis in human MDA-MB-231 cells at 5 uM incubated for 48 hrs by annexin-V-APC/PI staining based flow cytometric analysis (reference value: 5.9 +/- 0.26 %); type: functional
[23] = tested on: MDA-MB-231; test: Induction of apoptosis in human MDA-MB-231 cells assessed as downregulation of BCL-2 protein expression incubated for 48 hrs by Western blotting analysis; type: functional, cell-based
[24] = tested on: MDA-MB-231; test: Induction of apoptosis in human MDA-MB-231 cells assessed as downregulation of MCL-1 protein expression incubated for 48 hrs by Western blotting analysis; type: functional, cell-based
[25] = tested on: MDA-MB-231; test: Induction of apoptosis in human MDA-MB-231 cells assessed as downregulation of BCL-xl protein expression incubated for 48 hrs by Western blotting analysis; type: functional, cell-based
[26] = tested on: MDA-MB-231; test: Induction of apoptosis in human MDA-MB-231 cells assessed as upregulation of Bax protein expression incubated for 48 hrs by Western blotting analysis; type: functional, cell-based
[27] = tested on: MDA-MB-231; test: Inhibition of NF-kappaB signalling pathway in human MDA-MB-231 cells assessed as downregulation of p65 phosphorylation at 0.5 to 2 uM incubated for 48 hrs by Western blotting analysis; type: cell-based; settings: dose 0.5-2 µM
[28] = tested on: MDA-MB-231; test: Inhibition of NF-kappaB signalling pathway in human MDA-MB-231 cells assessed as downregulation of IkappaBalpha phosphorylation at 0.5 to 2 uM incubated for 48 hrs by Western blotting analysis; type: cell-based; settings: dose 0.5-2 µM
[29] = tested on: MDA-MB-231; test: Inhibition of NF-kappaB signalling pathway in human MDA-MB-231 cells assessed as effect on total p65 protein level at 0.2 to 2 uM incubated for 48 hrs by Western blotting analysis; type: cell-based; settings: dose 0.2-2 µM
[30] = tested on: MDA-MB-231; test: Inhibition of NF-kappaB signalling pathway in human MDA-MB-231 cells assessed as upregulation of cytoplasmic p65 expression at 0.2 to 2 uM incubated for 48 hrs by Western blotting analysis; type: cell-based; settings: dose 0.2-2 µM
[31] = tested on: MDA-MB-231; test: Inhibition of NF-kappaB signalling pathway in human MDA-MB-231 cells assessed as downregulation of nuclear p65 expression at 0.2 to 2 uM incubated for 48 hrs by Western blotting analysis; type: cell-based; settings: dose 0.2-2 µM
[32] = tested on: MDA-MB-231; test: Inhibition of NF-kappaB signalling pathway in human MDA-MB-231 cells assessed as inhibition of p65 nuclear translocation at 0.2 to 2 uM incubated for 48 hrs by Western blotting analysis; type: cell-based; settings: dose 0.2-2 µM

Q: For `Oc1ccc(-c2cc(=S)ss2)cc1`, which IC50 [1] is on record?
A: The IC50 was over 50 µM.

Q: `C=C1C(=O)O[C@H]2[C@H]1CC/C(C(=O)OCCCCOc1ccc(-c3cc(=S)ss3)cc1)=C\CC[C@@]1(C)O[C@@H]21` was tested. Which IC50 [1] did it give?
A: Its IC50 is 2.47 µM.

Q: `C=C1C(=O)O[C@H]2[C@H]1C(COC(=O)CC(C)(C)CC(=O)Oc1ccc(-c3cc(=S)ss3)cc1)C/C=C\CC[C@@]1(C)O[C@@H]21` (stereo partly drawn) was tested. Which IC50 [1] did it give?
A: The IC50 was 1.68 µM.

Q: How did the IC50 [1] turn out when `C=C1C(=O)O[C@H]2[C@H]1C(COC(=O)c1cc3ccccc3cc1C(=O)O)C/C=C\CC[C@@]1(C)O[C@@H]21` (stereo partly drawn) was run?
A: The IC50 was 4.96 µM.

Q: For `C=C1C(=O)O[C@H]2[C@H]1C(COC(=O)/C=C/c1ccccc1OCCc1ccc(-c3cc(=S)ss3)cc1)C/C=C\CC[C@@]1(C)O[C@@]21C` (stereo partly drawn), which IC50 [1] is on record?
A: Its IC50 is 1.07 µM.

Q: What about the IC50 [2] of the same compound?
A: The IC50 was 1.06 µM.

Q: And the IC50 [3]?
A: The IC50 was 0.37 µM.

Q: What about the IC50 [4] of the same compound?
A: Its IC50 is 1.81 µM.

Q: What about the IC50 [5] of the same compound?
A: Its IC50 is 2.85 µM.

Q: And the Activity [6]?
A: The Activity was “Toxic”.

Q: What about the Activity [7] of the same compound?
A: The Activity was “Dose-Dependent Effect”.

Q: What about the Activity [8] of the same compound?
A: Its Activity is “Dose-Dependent Effect”.

Q: And the Activity [9]?
A: Its Activity is “Dose-Dependent Effect”.

Q: And the Activity [10]?
A: Its Activity is “Dose-Dependent Effect”.

Q: And the Activity [11]?
A: The Activity was “Dose-Dependent Effect”.

Q: And the Activity [12]?
A: Its Activity is “Dose-Dependent Effect”.

Q: What about the Activity [13] of the same compound?
A: The Activity was 5.8%.

Q: And the Activity [14]?
A: Its Activity is 4.3%.

Q: What about the Activity [15] of the same compound?
A: Its Activity is 4.87%.

Q: And the Activity [16]?
A: Its Activity is 11.32%.

Q: And the Activity [17]?
A: The Activity was 52.61%.

Q: What about the Activity [18] of the same compound?
A: Its Activity is 6.85%.

Q: What about the Activity [19] of the same compound?
A: The Activity was 7.9%.

Q: And the Activity [20]?
A: Its Activity is 15.46%.

Q: What about the Activity [21] of the same compound?
A: Its Activity is 20.32%.

Q: And the Activity [22]?
A: Its Activity is 49.35%.

Q: And the Activity [23]?
A: Its Activity is “Dose-Dependent Effect”.

Q: And the Activity [24]?
A: Its Activity is “Dose-Dependent Effect”.

Q: What about the Activity [25] of the same compound?
A: Its Activity is “Dose-Dependent Effect”.

Q: And the Activity [26]?
A: The Activity was “Dose-Dependent Effect”.

Q: And the inhibition [27]?
A: Its inhibition is “Active”.

Q: And the inhibition [28]?
A: The inhibition was “Active”.

Q: What about the inhibition [29] of the same compound?
A: Its inhibition is “inactive”.

Q: And the inhibition [30]?
A: Its inhibition is “Active”.

Q: What about the inhibition [31] of the same compound?
A: The inhibition was “Active”.

Q: And the inhibition [32]?
A: The inhibition was “Active”.

Q: With `C=C1C(=O)O[C@H]2[C@H]1CC/C(C(=O)OCCCOc1ccc(-c3cc(=S)ss3)cc1)=C\CC[C@@]1(C)O[C@@H]21` as the compound, how does the IC50 [1] read?
A: Its IC50 is 2.09 µM.

Q: For `C=C1C(=O)O[C@H]2[C@H]1CC/C(C(=O)Oc1ccc(-c3cc(=S)ss3)cc1)=C\CC[C@@]1(C)O[C@@H]21`, which IC50 [1] is on record?
A: The IC50 was 1.39 µM.

Q: `C=C1C(=O)O[C@H]2[C@H]1C(COC(=O)CC1(CC(=O)O)CCCC1)C/C=C\CC[C@@]1(C)O[C@@H]21` (stereo partly drawn) was tested. Which IC50 [1] did it give?
A: The IC50 was 35.8 µM.

Q: Which IC50 [1] does the source give for `C=C1C(=O)O[C@H]2[C@H]1C(COC(=O)CC1(CC(=O)O)CCCCC1)C/C=C\CC[C@@]1(C)O[C@@H]21` (stereo partly drawn) here?
A: The IC50 was 12.8 µM.

Q: How did the IC50 [1] turn out when `C=C1C(=O)O[C@H]2[C@H]1C(COC(=O)c1ccccc1C(=O)Oc1ccc(-c3cc(=S)ss3)cc1)C/C=C\CC[C@@]1(C)O[C@@H]21` (stereo partly drawn) was run?
A: The IC50 was 2.91 µM.

Q: `C=C1C(=O)O[C@H]2[C@H]1C(COC(=O)c1cc3ccccc3cc1C(=O)Oc1ccc(-c3cc(=S)ss3)cc1)C/C=C\CC[C@@]1(C)O[C@@H]21` (stereo partly drawn) was tested. Which IC50 [1] did it give?
A: Its IC50 is 7.58 µM.

Q: What does the source list for `C=C1C(=O)O[C@H]2[C@H]1CC/C(CO)=C\CC[C@@]1(C)O[C@@H]21`?
A: IC50 [1]: 3.84 µM; IC50 [2]: 7.45 µM; IC50 [3]: 20 µM; IC50 [4]: 6.76 µM; IC50 [5]: 5.88 µM

Q: How did the IC50 [1] turn out when `C=C1C(=O)O[C@H]2[C@H]1C(COC(=O)c1ccccc1C(=O)O)C/C=C\CC[C@@]1(C)O[C@@H]21` (stereo partly drawn) was run?
A: Its IC50 is over 50 µM.
